Results as given in patent publication US10821100B2, “Triazolone compounds as mPGES-1 inhibitors” (Glenmark Pharmaceuticals S.A., priority 2012, dated 2020).

Target: T1, Recombinant human mPGES-1 (Homo sapiens, UniProt O14684)
T1 construct: made in house; host or cells: CHO cells (crude microsomal fractions)
T1 sequence (O14684 1-152): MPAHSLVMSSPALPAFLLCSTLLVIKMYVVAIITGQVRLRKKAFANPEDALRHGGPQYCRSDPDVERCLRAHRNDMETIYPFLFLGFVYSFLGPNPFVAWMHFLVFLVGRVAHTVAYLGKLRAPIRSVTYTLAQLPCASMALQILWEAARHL
Test: In-vitro screening of mPGES-1 inhibitors (inhibition of PGE2 formation from PGH2, HTRF detection)
Assay type: biochemical
Conditions: mPGES-1 enzyme; for inhibition at 1 µM: 1 μM test compound, read-out: Percentage inhibition at 1 μM; for inhibition at 10 µM: 10 μM test compound, read-out: Percentage inhibition at 10 μM; for IC50: class symbols
Outline: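 PGH2-to-PGE2 isomerization run for 1 min with 15 μM PGH2 after 10 min compound preincubation with microsomal enzyme (40–60 μg/mL) and 2.5 mM GSH, pH buffer 0.1 M potassium phosphate with EDTA. Stannous chloride quench, HTRF PGE2 readout, IC50 fitted against uninhibited reaction.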

| inhibition at 1 µM (crude microsomal fractions) | inhibition at 10 µM (crude microsomal fractions) | IC50 | inhibition at 3 µM (3 μM test compound, crude microsomal fractions, read-out: Percentage inhibition at 3 μM) | Compound |
| --- | --- | --- | --- | --- |
| 100% | 99.3% | < 0.05 µM |  | CC(C)(C)C(=O)NCc1cc(-c2nn(-c3ccc(Cl)cc3)c(=O)[nH]2)c(Cl)cc1F [Example-126, N-(4-Chloro-5-(1-(4-chlorophenyl)-4,5-dihydro-5-oxo-1H-1,2,4-triazol-3-yl)-2-fluorobenzyl)pivalamide] |
| 91.5% | 93.9% | < 0.05 µM |  | CC(C)(CF)C(=O)NCc1cc(-c2nn(-c3ccc(Cl)cc3)c(=O)[nH]2)c(Cl)cc1F [Example-134, N-(4-Chloro-5-(1-(4-chlorophenyl)-4,5-dihydro-5-oxo-1H-1,2,4-triazol-3-yl)-2-fluorobenzyl)-3-fluoro-2,2-dimethylpropanamide] |
| 20.2% | 6.88% |  |  | O=c1[nH]c(-c2cc(S(=O)(=O)NC3CC3)ccc2Cl)nn1-c1ccc(Cl)cc1 [Example-97, 4-Chloro-3-(1-(4-chlorophenyl)-5-oxo-4,5-dihydro-1H-1,2,4-triazol-3-yl)-N-cyclopropylbenzenesulfonamide] |
| 22.4% | 87.4% |  |  | COc1ccc(-n2nc(-c3c(F)cccc3Cl)[nH]c2=O)cc1C(=O)NCc1ccccc1C(F)(F)F [Example-20, 5-[3-(2-Chloro-6-fluorophenyl)-5-oxo-4,5-dihydro-1H-1,2,4-triazol-1-yl]-2-methoxy-N-[2-(trifluoromethyl)benzyl]benzamide] |
| 98.8% | 99.5% | < 0.05 µM |  | CC(C)(C)C(=O)NCc1ccc(Cl)c(-c2nn(-c3ccc(C(F)(F)F)cc3)c(=O)[nH]2)c1F [Example-84, N-(4-Chloro-2-fluoro-3-(5-oxo-1-(4-(trifluoromethyl)phenyl)-4,5-dihydro-1H-1,2,4-triazol-3-yl)benzyl)pivalamide] |
| 87% | 100% | > 0.1 µM |  | CC(C)(C)C(=O)NCc1ccc(Cl)c(-c2nn(-c3ccc(C(F)(F)F)cn3)c(=O)[nH]2)c1F [Example-94, N-(4-Chloro-2-fluoro-3-(5-oxo-1-(5-(trifluoromethyl)pyridin-2-yl)-4,5-dihydro-1H-1,2,4-triazol-3-yl)benzyl)pivalamide] |
| 93.5% | 92.1% | < 0.05 µM |  | CC(C)(C)C(=O)NCc1cc(-c2nn(-c3ccc(C(F)(F)F)nc3)c(=O)[nH]2)c(Cl)cc1F [Example-129, N-(4-Chloro-2-fluoro-5-(1-(6-(trifluoromethyl)pyridin-3-yl)-4,5-dihydro-5-oxo-1H-1,2,4-triazol-3-yl)benzyl)pivalamide] |
| 98.7% |  | < 0.05 µM | 98.5% | COc1cc(-n2nc(-c3cc(CNC(=O)C4CC4)ccc3Cl)[nH]c2=O)ccc1-c1nc(-c2ccc(Cl)cc2)no1 [Example-57, N-(4-Chloro-3-(1-(4-(3-(4-chlorophenyl)-1,2,4-oxadiazol-5-yl)-3-methoxyphenyl)-5-oxo-4,5-dihydro-1H-1,2,4-triazol-3-yl)benzyl)cyclopropanecarboxamide] |
| 67.9% | 95% |  |  | CC1(C)CCC(n2nc(-c3cc(CNC(=O)C(F)(F)F)ccc3Cl)[nH]c2=O)CC1 [Example-117, N-(4-chloro-3-(4,5-dihydro-1-(4,4-dimethylcyclohexyl)-5-oxo-1H-1,2,4-triazol-3-yl)benzyl)-2,2,2-trifluoroacetamide] |
| 98.6% | 97.6% | < 0.05 µM |  | CC(C)(C)C(=O)NCc1ccc(Cl)c(-n2nc(-c3ccc(Cl)c(C(F)(F)F)c3)[nH]c2=O)c1 [Example-147, N-(4-Chloro-3-(3-(4-chloro-3-(trifluoromethyl)phenyl)-4,5-dihydro-5-oxo-1,2,4-triazol-1-yl)benzyl)pivalamide] |
| 93.3% | 92.9% | < 0.05 µM |  | CC(C)(C)C(=O)NCc1ccc(Cl)c(-c2nn(-c3ccc(C(F)(F)F)nc3)c(=O)[nH]2)c1 [Example-138, N-(4-Chloro-3-(1-(6-(trifluoromethyl)pyridin-3-yl)-4,5-dihydro-5-oxo-1H-1,2,4-triazol-3-yl)benzyl)pivalamide] |
| 96.8% | 99% | < 0.05 µM |  | CC(C)(C)C(=O)NCc1ccc(Cl)c(-c2nn(-c3ccc(C(F)(F)F)c(F)c3)c(=O)[nH]2)c1F [Example-173, N-(4-Chloro-2-fluoro-3-(1-(3-fluoro-4-(trifluoromethyl)phenyl)-4,5-dihydro-5-oxo-1H-1,2,4-triazol-3-yl)benzyl)pivalamide] |
| 92.4% | 94.8% | < 0.05 µM |  | COc1cc(-n2nc(-c3cc(CNC(=O)C4CC4)ccc3Cl)[nH]c2=O)ccc1C(=O)Nc1ccc(F)c(C(F)F)c1 [Example-63, 4-(3-(2-Chloro-5-(cyclopropanecarboxamidomethyl)phenyl)-5-oxo-4,5-dihydro-1H-1,2,4-triazol-1-yl)-N-(3-(difluoromethyl)-4-fluorophenyl)-2-methoxybenzamide] |
| 98.3% | 97.2% | < 0.05 µM |  | Cc1ccc(CNC(=O)C(C)C)c(C)c1-c1nn(-c2ccc(C#CC(C)(C)C)cc2)c(=O)[nH]1 [Example-164, N-(3-(4,5-Dihydro-1-(4-(3,3-dimethylbut-1-ynyl)phenyl)-5-oxo-1H-1,2,4-triazol-3-yl)-2,4-dimethylbenzyl)isobutyramide] |
| 96.5% | 98.2% | < 0.05 µM |  | CC(C)(CO)C(=O)NCc1ccc(Cl)c(-c2nn(-c3ccc(C(F)(F)F)cc3)c(=O)[nH]2)c1 [Example-115, N-(4-Chloro-3-(1-(4-(trifluoromethyl)phenyl)-4,5-dihydro-5-oxo-1H-1,2,4-triazol-3-yl)benzyl)-3-hydroxy-2,2-dimethylpropanamide] |
